Measured values published in patent publication US20240173440A1, “HIGH PURITY COPPER RADIOPHARMACEUTICAL COMPOSITIONS AND DIAGNOSTIC AND THERAPEUTIC USES THEREOF” (Nuclidium AG, priority 2022, published 2024).

Experiments:
[1] = tested on: HT-1080.hFAP cells; assay: In vitro cellular uptake (cell surface and internalized fractions) in HT-1080.hFAP cells; assay type: cell-based, human
Procedure: (§1) The cellular uptake was studied in vitro using intact cells seeded in 6-well plates overnight. On the day of the experiment, the cells were washed and incubated with each of the exemplified [^61Cu]Cu-radiotracer at different time points, either alone or in the presence of a blocking agent to distinguish between specific and non-specific uptake. At each investigated time point, the medium containing the unbound (free) radiotracer was removed, followed by two washing steps with ice-cold phosphate-buffered saline. The cells were then treated 2×5 min with ice-cold glycine solution (0.05 M, pH 2.8) to detach the cell surface-bound radiotracer (acid released). Afterwards, the cells containing the internalized radiotracer were detached with 1 M NaOH at 37° C. and collected for measurement. The amount of specific cell surface-bound and internalized radiotracer is expressed as percentage of the total applied activity, after subtracting the non-specific values.
as §1, with “^61Cu-labeled conjugate” for “of the exemplified [^61Cu]Cu-radiotracer”
The cells were then preconditioned in 360 μL of assay medium (MEM medium without supplements) at 37° C. for 60 min. 40 μL of a 2 nM solution of ^61Cu-labeled radioligand was added and the cells were incubated at 37° C. The cellular uptake was interrupted at different time points (15 min, 1 hour and 4 hours), by washing twice with ice-cold PBS. Cell surface-bound radioligand was obtained by washing cells twice with ice-cold glycine buffer (pH 2.8), followed by a collection of the internalized fraction with 1 M NaOH. The activity in each fraction was measured in a γ-counter (Cobra II).

[2] = tested on: HT-1080.hFAP and HT-1080.wt xenografts; assay: Quantitative biodistribution in HT-1080.hFAP and HT-1080.wt xenografted mice; assay type: in vivo; details: for Biodistribution HT-1080.wt: FAP-negative tumor; for Biodistribution HT-1080.hFAP: FAP-positive tumor
Procedure: The tumors were allowed to grow to an average volume of 100-200 mm3.
Biodistribution Studies: The xenografted mice were randomized (n=5 per group) and injected intravenously via the tail vein with the ^61Cu-labeled radioligands (100 μL, […], 0.8-1MBq). Mice were euthanized 1h and 4h pi. by CO2 asphyxiation. Organs of interest and blood were collected, rinsed of excess blood, blotted dry, weighed, and counted in a […]. The samples were counted against a suitably diluted aliquot of the injected solution as the standard and the results are expressed as the percentage of the injected activity per gram of tissue (0% I.A./g)+SD.

[3] = target: hFAP (Homo sapiens (Human), UniProt Q12884); assay: Saturation binding on isolated HEK-293.hFAP cell membranes; set-up: Bmax: unit not given here; details: 37° C.
Procedure: The cells were homogenized using Ultra-Turrax, and the homogenized suspension was centrifuged at 500×g for 10 min at 4° C. The supernatant was collected in centrifuge tubes (Beckman Coulter Inc., Brea, CA, USA). This procedure was then repeated 5 times. The collected supernatant was centrifuged in an ultra-centrifuge (Beckman) at 4° C. for 55 min at 49,000×g. Then, the pellet was re-suspended in 10 mM ice-cold HEPES buffer (pH 7.5), aliquoted, and stored at −80° C. The protein concentration of those membrane suspensions was determined by the Bradford method, BSA as the standard.
Each assay tube contained 170 μL of binding buffer (20 mM HEPES, pH 7.4, containing 4 mM μgCl2, 0.2% BSA, 20 μg/L bacitracin, 20 μg/L PMSF and 200,000 KIU/L aprotinin). The incubation was initiated by adding 30 μL of radioligand solution at 10 times the final concentration and 100 μL of cell membrane suspension to yield 10 μg of protein per well. For the determination of the non-specific binding, 140 μL of the above binding buffer was added along with 30 μL of FAPI-46 to obtain (0.1 mM). Bound fractions were plotted versus the corresponding radioligand concentration at equilibrium. The dissociation constant (KD) and maximal binding capacity (Bmax) values were calculated using GraphPad Software Inc., Prism 7, San Diego, CA, USA (Table 33 and FIG. 21).

[4] = Remaining PET activity in the mouse body 4h p.i.; assay type: in vivo; details: mice
Procedure: PET/CT Imaging: Mice bearing FAP-positive and FAP-negative xenografts were injected intravenously with ^61Cu-labeled radioligands of the present disclosure or ^61Cu-NODAGA-FAPI-46 (100 μL/[…]/6-12 MBq). […] The mice were euthanized by CO2 at 4 hours p.i., and static PET scans were acquired for 30 min.
Remaining PET activity in the mouse body 4h p.i. prior to the 4h scan was determined (Table 36).

[5] = 15 min, HT-1080.hFAP cells, specific uptake (minus HT-1080.wt)
[6] = 240 min, HT-1080.hFAP cells, specific uptake (minus HT-1080.wt)
[7] = 1 h p.i., HT-1080.hFAP and HT-1080.wt xenografts
[8] = 4 h p.i., HT-1080.hFAP and HT-1080.wt xenografts
[9] = HT-1080.hFAP and HT-1080.wt xenografts

Sequence of hFAP (Q12884 whole entry): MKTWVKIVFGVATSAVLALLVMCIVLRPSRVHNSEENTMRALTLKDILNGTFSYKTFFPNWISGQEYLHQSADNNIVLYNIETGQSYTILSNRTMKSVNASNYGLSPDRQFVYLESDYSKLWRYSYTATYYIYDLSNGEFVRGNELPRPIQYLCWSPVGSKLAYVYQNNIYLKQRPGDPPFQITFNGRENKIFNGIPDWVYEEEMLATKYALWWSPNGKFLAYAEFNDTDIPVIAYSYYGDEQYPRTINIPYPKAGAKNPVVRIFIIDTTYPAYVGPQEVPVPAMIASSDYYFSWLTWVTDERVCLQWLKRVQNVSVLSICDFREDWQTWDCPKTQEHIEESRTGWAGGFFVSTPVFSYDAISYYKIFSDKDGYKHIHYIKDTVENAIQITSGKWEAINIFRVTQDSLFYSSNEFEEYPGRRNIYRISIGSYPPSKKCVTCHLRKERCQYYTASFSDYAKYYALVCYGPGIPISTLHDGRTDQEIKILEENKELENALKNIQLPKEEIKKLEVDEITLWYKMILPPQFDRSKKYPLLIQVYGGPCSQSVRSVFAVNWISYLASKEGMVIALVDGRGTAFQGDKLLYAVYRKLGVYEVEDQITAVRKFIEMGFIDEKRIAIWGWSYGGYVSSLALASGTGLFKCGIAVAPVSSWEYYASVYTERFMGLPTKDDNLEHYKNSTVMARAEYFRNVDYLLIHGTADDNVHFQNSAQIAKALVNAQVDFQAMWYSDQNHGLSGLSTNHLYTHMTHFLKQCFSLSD

CN(C(=O)CCC(=O)N1CCN(C(=O)CC[C@H](C(=O)O)N2CCN3CCN(CC2)CC(=O)[O][61Cu][O]C(=O)C3)CC1)c1ccc2nccc(C(=O)NCC(=O)N3CC(F)(F)C[C@H]3C#N)c2c1 [[^61Cu]Cu-NODAGA-F4]
Cell surface fraction [1, 5]: 1.0 ± 0.7 % of the applied activity | Cell surface fraction [1, 6]: 0.9 ± 0.6 % of the applied activity | Cell surface fraction ([1]; Time Point 15 min, 0.2 nM): 1.0 ± 0.7 percentage of the total applied activity | Cell surface fraction ([1]; Time Point 240 min, 0.2 nM): 0.9 ± 0.6 percentage of the total applied activity | Biodistribution Heart ([2]; 1 hour p.i.): 0.6 ± 0.0 % I.A./g | Biodistribution Intestine ([2]; 1 hour p.i.): 0.5 ± 0.2 % I.A./g | Biodistribution Liver ([2]; 1 hour p.i.): 0.6 ± 0.1 % I.A./g | Biodistribution Lung ([2]; 1 hour p.i.): 0.9 ± 0.1 % I.A./g | Biodistribution Muscle ([2]; 1 hour p.i.): 0.8 ± 0.2 % I.A./g | Biodistribution Spleen ([2]; 1 hour p.i.): 0.4 ± 0.0 % I.A./g | Biodistribution Stomach ([2]; 1 hour p.i.): 0.5 ± 0.0 % I.A./g | Biodistribution Adrenal [2, 7]: 1.1 ± 0.2 % IA/g | Biodistribution Blood [2, 7]: 1.4 ± 0.1 % IA/g | Biodistribution Femur [2, 7]: 3.2 ± 0.8 % IA/g | Biodistribution HT1080.hFAP (FAP-positive tumor) [2, 7]: 7.4 ± 1.6 % IA/g | Biodistribution HT1080.wt (FAP-negative tumor) [2, 7]: 1.7 ± 0.2 % IA/g | Biodistribution Heart [2, 7]: 0.6 ± 0.0 % IA/g | Biodistribution Intestine [2, 7]: 0.5 ± 0.2 % IA/g | Biodistribution Kidney [2, 7]: 1.8 ± 0.2 % IA/g | Biodistribution Liver [2, 7]: 0.6 ± 0.1 % IA/g | Biodistribution Lung [2, 7]: 0.9 ± 0.1 % IA/g | Biodistribution Muscle [2, 7]: 0.8 ± 0.2 % IA/g | Biodistribution Pancreas [2, 7]: 1.1 ± 0.1 % IA/g | Biodistribution Spleen [2, 7]: 0.4 ± 0.0 % IA/g | Biodistribution Stomach [2, 7]: 0.5 ± 0.0 % IA/g | Biodistribution Adrenal ([2]; 4 hours p.i.): 0.5 ± 0.1 % I.A./g | Biodistribution Blood ([2]; 4 hours p.i.): 0.4 ± 0.1 % I.A./g | Biodistribution Heart ([2]; 4 hours p.i.): 0.2 ± 0.0 % I.A./g | Biodistribution Intestine ([2]; 4 hours p.i.): 0.3 ± 0.1 % I.A./g | Biodistribution Liver ([2]; 4 hours p.i.): 0.4 ± 0.0 % I.A./g | Biodistribution Lung ([2]; 4 hours p.i.): 0.3 ± 0.0 % I.A./g | Biodistribution Muscle ([2]; 4 hours p.i.): 0.4 ± 0.1 % I.A./g | Biodistribution Pancreas ([2]; 4 hours p.i.): 0.4 ± 0.1 % I.A./g | Biodistribution Spleen ([2]; 4 hours p.i.): 0.2 ± 0.0 % I.A./g | Biodistribution Stomach ([2]; 4 hours p.i.): 0.2 ± 0.0 % I.A./g | Biodistribution Adrenal [2, 8]: 0.5 ± 0.1 % IA/g | Biodistribution Blood [2, 8]: 0.4 ± 0.1 % IA/g | Biodistribution Femur [2, 8]: 1.2 ± 0.1 % IA/g | Biodistribution HT1080.hFAP (FAP-positive tumor) [2, 8]: 3.0 ± 0.8 % IA/g | Biodistribution HT1080.wt (FAP-negative tumor) [2, 8]: 0.6 ± 0.0 % IA/g | Biodistribution Heart [2, 8]: 0.2 ± 0.0 % IA/g | Biodistribution Intestine [2, 8]: 0.3 ± 0.1 % IA/g | Biodistribution Kidney [2, 8]: 1.1 ± 0.1 % IA/g | Biodistribution Liver [2, 8]: 0.4 ± 0.0 % IA/g | Biodistribution Lung [2, 8]: 0.3 ± 0.0 % IA/g | Biodistribution Muscle [2, 8]: 0.4 ± 0.1 % IA/g | Biodistribution Pancreas [2, 8]: 0.4 ± 0.1 % IA/g | Biodistribution Spleen [2, 8]: 0.2 ± 0.0 % IA/g | Biodistribution Stomach [2, 8]: 0.2 ± 0.0 % IA/g | Biodistribution HT-1080.wt ([2]; 1 hour p.i.): 1.7 ± 0.2 % I.A./g | Biodistribution HT-1080.wt ([2]; 4 hours p.i.): 0.6 ± 0.0 % I.A./g | Biodistribution HT-1080.hFAP ([2]; 1 hour p.i.): 7.4 ± 1.6 % I.A./g | Biodistribution HT-1080.hFAP ([2]; 4 hours p.i.): 3.0 ± 0.8 % I.A./g | accumulation in tumor and target-positive tissues [2, 9]: high accumulation in FAP-positive (HT-1080.hFAP) tumor and murine-FAP-positive tissues | Bmax [3]: 9.1-9.8 | retention in the body (remaining PET activity) [4]: lowest value

CN(CCCN1CCN(C(=O)CCC(C(=O)O)N2CCN3CCN(CC2)CC(=O)[O][61Cu][O]C(=O)C3)CC1)c1ccc2nccc(C(=O)NCC(=O)N3CC(F)(F)C[C@H]3C#N)c2c1 (stereo partly shown) [[^61Cu]Cu-NODAGA-FAPI-46]
Cell surface fraction [1, 5]: 0.9 ± 0.3 % of the applied activity | Internalized fraction [1, 6]: 50.0 ± 6.0 % of the applied activity | Cell surface fraction ([1]; Time Point 15 min, 0.2 nM): 0.9 ± 0.3 percentage of the total applied activity | Internalized fraction ([1]; Time Point 240 min, 0.2 nM): 50.0 ± 6.0 percentage of the total applied activity | Biodistribution Adrenal [2, 7]: 2.2 ± 0.1 % IA/g | Biodistribution Blood [2, 7]: 2.6 ± 0.1 % IA/g | Biodistribution Femur [2, 7]: 6.5 ± 0.4 % IA/g | Biodistribution HT1080.hFAP (FAP-positive tumor) [2, 7]: 8.4 ± 1.4 % IA/g | Biodistribution HT1080.wt (FAP-negative tumor) [2, 7]: 3.1 ± 0.0 % IA/g | Biodistribution Heart [2, 7]: 1.1 ± 0.0 % IA/g | Biodistribution Intestine [2, 7]: 1.0 ± 0.4 % IA/g | Biodistribution Kidney [2, 7]: 1.5 ± 0.1 % IA/g | Biodistribution Liver [2, 7]: 0.9 ± 0.0 % IA/g | Biodistribution Lung [2, 7]: 1.5 ± 0. % IA/g | Biodistribution Muscle [2, 7]: 1.7 ± 0.1 % IA/g | Biodistribution Pancreas [2, 7]: 2.0 ± 0.2 % IA/g | Biodistribution Spleen [2, 7]: 0.7 ± 0.1 % IA/g | Biodistribution Stomach [2, 7]: 1.0 ± 0.1 % IA/g | Biodistribution Adrenal [2, 8]: 2.0 ± 0.2 % IA/g | Biodistribution Blood [2, 8]: 1.5 ± 0.1 % IA/g | Biodistribution Femur [2, 8]: 4.6 ± 0.4 % IA/g | Biodistribution HT1080.hFAP (FAP-positive tumor) [2, 8]: 7.7 ± 0.4 % IA/g | Biodistribution HT1080.wt (FAP-negative tumor) [2, 8]: 2.5 ± 0.2 % IA/g | Biodistribution Heart [2, 8]: 0.7 ± 0.1 % IA/g | Biodistribution Intestine [2, 8]: 0.6 ± 0.2 % IA/g | Biodistribution Kidney [2, 8]: 1.0 ± 0.1 % IA/g | Biodistribution Liver [2, 8]: 0.8 ± 0.2 % IA/g | Biodistribution Lung [2, 8]: 1.0 ± 0.1 % IA/g | Biodistribution Muscle [2, 8]: 1.4 ± 0.2 % IA/g | Biodistribution Pancreas [2, 8]: 1.6 ± 0.1 % IA/g | Biodistribution Spleen [2, 8]: 0.5 ± 0.1 % IA/g | Biodistribution Stomach [2, 8]: 0.6 ± 0.1 % IA/g | accumulation in tumor and target-positive tissues [2, 9]: high accumulation in FAP-positive (HT-1080.hFAP) tumor and murine-FAP-positive tissues | Bmax [3]: 9.0-10.3 | retention in the body (remaining PET activity) [4]: highest retention in the body
